Reference: US12252457B2, “Compositions and methods for reducing tactile dysfunction, anxiety, and social impairment” (President and Fellows of Harvard College, priority 2018, dated 2025)
Entries after “also recorded” stand apart in the source; their conditions may differ. Where a name gives a salt, the structure may show the parent alone.

Tested on: mutant mice (Advillin^Cre; Mecp2^f/y, Advillin^Cre; Shank3^f/f, Advillin^Cre; Gabrb3^f/+, Advillin^Cre; Gabrb3^f/f)
Assay: Tactile prepulse inhibition (PPI) assay and response to air puff alone, acute Compound 5
Assay type: in vivo, mouse
Settings: 2 mg/kg i.p.
Procedure: FIG. 1 is a graph showing percent inhibition of an acoustic startle response (PPI) to a 125-dB noise (pulse), when the startle noise was preceded by a light air puff (prepulse, 0.9 PSI, 50 ms) at an interstimulus interval of 250 ms. Values are expressed as percent of control littermates' performance. Experiments were performed in mutant mice (Advillin^Cre; Mecp2^f/y, Advillin^Cre; Shank3^f/f) and control littermates, 30 minutes after an intraperitoneal injection of either saline (vehicle) the peripherally restricted Compound 5 (2 mg/kg). Two-way ANOVA, with post-hoc Holm-Sidak's test, *, p<0.05, when comparing mutants to control within same treatment; I, p<0.05, or p<0.10, when comparing the same genotype across different treatments.
FIG. 2 is a graph showing response to a light air puff stimulus alone (0.9 PSI, 50 ms). Responses are expressed as a percent of startle response to a 125-B noise. Experiments were performed in mutant mice (Advillin^Cre; Mecp2^f/y, Advillin^Cre; Shank3^f/f) and control littermates, 30 minutes after an intraperitoneal injection of either saline (vehicle) the peripherally restricted Compound 5 (2 mg/kg). Two-way ANOVA, with post-hoc Holm-Sidak's test, *, p<0.05, when comparing mutants to control within same treatment; I, p<0.05, when comparing the same genotype across different treatments.
FIG. 3 is a graph showing magnitude of startle response to a 125-dB noise. Experiments were performed in mutant mice (Advillin^Cre; Mecp2^f/y, Advillin^Cre; Shank3^f/f) and control littermates, 30 minutes after an intraperitoneal injection of either saline (vehicle) the peripherally restricted Compound 5 (2 mg/kg).
FIG. 4 is a graph showing the percent inhibition of an acoustic startle response (PPI) to a 125-dB noise (pulse), when the startle noise was preceded by a light air puff (prepulse, 0.9 PSI, 50 ms) at an interstimulus interval of 250 ms. Values were expressed as percent of control littermates' performance. Experiments were performed in mutant mice (Advillin^Cre; Mecp2^f/y, Advillin^Cre; Shank3^f/f, Advillin^Cre; Gabrb^3f/+, Advillin^Cre; Gabrb3^f/f) and control littermates, 30 minutes after an intraperitoneal injection of either saline (vehicle) or Compound 5 at 2 mg/kg. […] Two-way ANOVA, with post-hoc Holm-Sidak's test, *, p<0.05, when comparing mutants to control within same treatment; t, p<0.05, or #, p<0.10, when comparing the same genotype across different treatments.
FIG. 5 is a graph showing the response to a light air puff stimulus alone (0.9 PSI, 50 ms). Responses were expressed as a percent of startle response to a 125-B noise. Experiments were performed in mutant mice (Advillin^Cre; Mecp2^f/y, Advillin^Cre; Shank3^f/f, Advillin^Cre; Gabrb3^f/+, Advillin^Cre; Gabrb3^f/f) and control littermates, 30 minutes after an intraperitoneal injection of either saline (vehicle) or Compound 5 at 2 mg/kg. […] Two-way ANOVA, with post-hoc Holm-Sidak's test, *, p<0.05, when comparing mutants to control within same treatment; f, p<0.05, when comparing the same genotype across different treatments. […]
FIGS. 1 and 4 show the percent inhibition of an acoustic startle response (PPI) to a 125-dB noise (pulse), when the startle noise was preceded by a light aft puff (prepulse, 0.9 PSI, 50 ms) at an interstimulus interval of 250 ms. Values were expressed as percent of control littermates' performance. […]

[1] = Advillin^Cre, Mecp2^f/y, Shank3^f/f, Gabrb3^f/+ mice, 30 min, vs saline

SMILES: NC1C=C(C(=O)O)CCC1 (centres unmarked) [Compound 5, 3-aminocyclohex-1-enecarboxylic acid hydrochloride]
- tactile (hairy skin) sensitivity in mice with complete loss of GABA-A receptors on peripheral somatosensory neurons (Advillin^Cre, Gabrb3^f/f mice, 30 min, hydrochloride, 2 mg/kg): do not show a reduction in tactile sensitivity; also recorded: did not show any improvements in hairy skin sensitivity
- responsivity to a light air puff stimulus alone (0.9 PSI, 50 ms) [1]: reduced responsivity to an air puff stimulus
- tactile PPI performance [1]: reduced tactile PPI performance
- hairy skin hypersensitivity (tactile PPI assay and response to air puff stimulus alone) (Mecp2, Shank3 and Gabrb3 heterozygous conditional mutant mice, 30 minutes after injection, hydrochloride, 2 mg/kg): reduces hairy skin over-reactivity; also recorded: significantly reduced hairy skin hypersensitivity; also recorded: reduces hairy skin hypersensitivity
- motor behaviors or sedation, average startle amplitude elicited by a 125-dB noise (mutant mice and control littermates, 30 min, hydrochloride, 2 mg/kg): did not have negative effects on motor behaviors or sedation; also recorded: no significant differences between any genotypes or treatment groups
